Results taken from BindingDB's records for doi:10.1016/j.bmcl.2009.06.027 (Grupo Uriach, 2009).

Assay: Inhibition of wild type CXCR1 transfected in mouse L1.2 cells assessed as inhibition of CXCL8-induced cell migration pretreated for 15 mins measured after 4 hrs

In the case of `O=C(O)Cc1ccccc1Nc1c(Cl)cccc1Cl` [{2-[(2,6-dichlorophenyl)amino]phenyl}acetic acid], the IC50 is reported as 12 nM.

Assay: Inhibition of CXCL8-induced chemotaxis in human polymorphonuclear leukocyte pretreated for 15 mins measured after 4 hrs by cell migration assay

Going from `O=C(O)Cc1ccccc1Nc1c(Cl)cccc1Cl` [{2-[(2,6-dichlorophenyl)amino]phenyl}acetic acid] to `Cc1ccc(Cl)c(Nc2ccccc2CC(=O)O)c1Cl` [2-(2-(2,6-dichloro-3-methylphenylamino)phenyl)acetic acid], the IC50 rises from 8 nM to 500 nM (62-fold). The first is the more potent here.

`Cc1cccc(C)c1NC(=O)C(C)c1ccccc1Nc1c(Cl)cccc1Cl` (stereo unspecified) [2-{2-[(2,6-Dichlorophenyl)amino]phenyl}-N-(2,6-dimethylphenyl)propanamide] and `CC(C(=O)NC(C)(C)C)c1ccccc1Nc1c(Cl)cccc1Cl` (stereo unspecified) [N-(tert-Butyl)-2-{2-[(2,6-dichlorophenyl)amino]phenyl}propanamide] are within 1.5-fold of each other in IC50: 600 nM for the first, 650 nM for the second.

`CC(C(=O)NCCCN(C)C)c1ccccc1Nc1c(Cl)cccc1Cl` (stereo unspecified) [2-{2-[(2,6-Dichlorophenyl)amino]phenyl}-N,N'-[3,3-(dimethylamino)propyl]propanamide] and `CC(C(=O)NCCO)c1ccccc1Nc1c(Cl)cccc1Cl` (stereo unspecified) [2-{2-[(2,6-Dichlorophenyl)amino]phenyl}-N-(2-hydroxyethyl)propanamide] are within 1.5-fold of each other in IC50: 25 nM for the first, 20 nM for the second.

Compared with `Cc1ccc(C(=O)c2ccc(CC(=O)O)n2C)cc1` [2-(1-methyl-5-(4-methylbenzoyl)-1H-pyrrol-2-yl)acetic acid], `COc1ccc2c(c1)c(CC(=O)O)c(C)n2C(=O)c1ccc(Cl)cc1` [indometacin] is 1.8-fold lower in IC50: 90 nM for the first, 50 nM for the second. The second is the more potent here.

Compared with `O=C(O)Cc1ccccc1Nc1cc(Cl)ccc1Cl` [[2-(2,5-Dichloro-phenylamino)-phenyl]-acetic acid], `O=C(O)Cc1ccccc1Nc1ccccc1Cl` [[2-(2-Chloro-phenylamino)-phenyl]-acetic acid] is 16-fold higher in IC50: 25 nM for the first, 400 nM for the second.

Going from `O=C(O)Cc1ccccc1Oc1ccccc1` [(2-Phenoxy-phenyl)-acetic acid] to `O=C(O)Cc1ccccc1Oc1ccccc1F` [2-(2-(2-fluorophenoxy)phenyl)acetic acid], the IC50 falls from > 1000 nM to 13 nM.

`CC(C(=O)NS(C)(=O)=O)c1ccccc1Nc1c(Cl)cccc1Cl` (stereo unspecified) [2-{2-[(2,6-Dichlorophenyl)amino]phenyl}-N-(methylsulfonyl)propanamide] and `CC(C(N)=O)c1ccccc1Nc1c(Cl)cccc1Cl` (stereo unspecified) [2-{2-[(2,6-Dichlorophenyl)amino]phenyl}propanamide] are within 1.5-fold of each other in IC50: 13 nM for the first, 12 nM for the second.

First: CC(C(=O)NCCC[N+](C)(C)C)c1ccccc1Nc1c(Cl)cccc1Cl (stereo unspecified) [3-(2-(2-(2,6-dichlorophenylamino)phenyl)propanamido)-N,N,N-trimethylpropan-1-aminium iodide]
Second: CC(C(=O)O)c1ccccc1Nc1c(Cl)cccc1Cl (stereo unspecified) [2-{2-[(2,6-Dichlorophenyl)amino]phenyl}propanoic acid]
The IC50 of the first is higher: > 1000 nM for the first, 10 nM for the second. The second is the more potent here.

`O=C(O)Cc1ccccc1Nc1ccccc1` [(2-Phenylamino-phenyl)-acetic acid] and `Cc1ccccc1Nc1ccccc1CC(=O)O` [2-(2-(o-tolylamino)phenyl)acetic acid] cannot be ordered by IC50: > 1000 nM for the first, > 1000 nM for the second.

First: CS(=O)(=O)NC(=O)Cc1ccccc1Oc1ccccc1F [2-[2-(2-Fluorophenoxy)phenyl]-N-(methylsulfonyl)acetamide]
Second: O=C(O)Cc1ccccc1Oc1ccccc1Cl [[2-(2-Chloro-phenoxy)-phenyl]-acetic acid]
The IC50 of the first is 10-fold lower: 50 nM for the first, 500 nM for the second. The first is the more potent here.

First: O=C(O)Cc1cccc(C(=O)c2ccccc2)c1 [2-(3-benzoylphenyl)acetic acid]
Second: O=C(O)Cc1ccccc1Nc1ccccc1F [2-(2-(2-fluorophenylamino)phenyl)acetic acid]
The IC50 of the first is higher: > 1000 nM for the first, 9 nM for the second. The second is the more potent here.

`O=C(O)Cc1ccccc1Nc1c(F)cccc1F` [2-(2-(2,6-difluorophenylamino)phenyl)acetic acid] and `O=C(O)Cc1ccccc1Cc1c(Cl)cccc1Cl` [2-(2-(2,6-dichlorobenzyl)phenyl)acetic acid] cannot be ordered by IC50: > 1000 nM for the first, > 1000 nM for the second.

With `CC(C)Cc1ccc(CC(=O)O)cc1` [Ibufenac] the IC50 was > 1000 nM.
